Test results as given in patent US9695129B2, “Parasiticidal compositions comprising benzimidazole derivatives, methods and uses thereof” (MERIAL INC., priority 2012, dated 2017).
Where two headings read alike, the source gives them in different places.

Experiments:
Parameters in all cases: species or system Fasciola hepatica
adult F. hepatica [1] = assay: In vitro test on adult F. hepatica (viability scale, effective concentration); conditions: Fasciola hepatica, read-out: Effective in vitro concentration
Procedure: Representative compounds of formula (I), formula (II), and formula (III) were tested in vitro against F. hepatica as follows. Adult F. hepatica (fluke) were collected from infected bovine livers obtained from a local abattoir (Basel, Switzerland). The worms were quickly washed with 0.9% (w/v) NaCl and placed in 6 or 12-well plates (Costar). Culture medium in each well contained RPMI 1640 (Gibco) at 37° C., which was supplemented with antibiotics (50 μg/ml streptomycin and 50 IU/ml penicillin; Gibco) and 80 μg/ml of a haemin solution. The haemin solution was prepared as follows: 5 mg haemin was dissolved in 1 ml of 0.1M aqueous solution of NaOH, and 3.95 ml of PBS (pH=7.4) and 0.05 ml of 1M HCl were added to adjust the pH to 7.1-7.4 (Keiser and Morson, 2008). Cultures were kept at 37° C. in an atmosphere of 5% CO2. To monitor the temporal effects of test compounds in vitro, 3 flukes were incubated for 72 h in the presence of 50 or 100 μg/ml of each test compound. At 24, 48, and 72 h, worms were examined using a dissecting microscope. For the adult worms, a viability scale ranging from 4 (normal movements) to 1 (death; no movement observed for two min using a microscope) was used.
(§1) Table 1 lists representative compounds of formula (I) of the present invention and their effective in vitro concentrations against F. hepatica. All compounds were tested in vitro on the adult stage of F. hepatica as described above. Each data point refers to at least two independent experiments. For Table 1, R2 is H, R4 is Cl and R5 is H.
as §1, with “2” for “1”, “(II)” for “(I)”, “2 compounds, the 2-position of the benzimidazole ring” for “1, R2”, “methylthio, R6” for “H, R4”, “H” for “Cl”, “R9” for “R5”
as §1, with “3” for “1”, “(III)” for “(I)”, “3, the 2-position of the benzimidazole ring” for “1, R2”, “trifluoromethylthio, R10” for “H, R4”, “H” for “Cl”, “R13” for “R5”

[2] = test system: F. hepatica resistant to triclabendazole (Oberon isolate of Australia); assay: In vitro test against triclabendazole-resistant F. hepatica (Oberon isolate), movement score; conditions: scale 3 (very active) to 0 (death)
adult F. hepatica [3] = assay: In vivo test in female Wistar rats harboring adult F. hepatica; conditions: single oral dose 100 mg/kg, one week after dosing; for Number of living worms Ø = average: control 6.3; for Worm burden reduction %: vs untreated control
Procedure: Additionally, five compounds were tested in vivo in female Wistar rats against an untreated control. Rats were kept in groups of five in type-4 Makrolon cages under environmentally controlled conditions (temperature, 22° C.; humidity, 70%; light/dark cycle, 12/12 h) with free access to water and rodent food. F. hepatica metacercariae (Pacific Northwest wild strain) were purchased from Baldwin Aquatics (Monmouth, Oreg.). After one week of adaptation, each rat was infected by oral gavage with approximately 25 metacercariae.
Three rats harboring adult F. hepatica (>8 weeks postinfection) were used to test each of five compounds. The rats were given a single oral dose of 100 mg/kg with each of test compounds 273, 274, 282, 290 and 303. Untreated rats (n=3) served as controls. Dosing formulations consisted of 300 ul Tween 80:ethanol (1:1) and 2.7 ml water. One week after dosing the animals were euthanized and live worms recovered from excised bile ducts.

[4] = Table 1, formula (I), adult flukes incubated up to 72 h, at least two independent experiments
[5] = Table 2, formula (II), adult flukes incubated up to 72 h, at least two independent experiments

Structure (SMILES): FC(F)(F)c1nc2cc(Cl)c(-c3ccc(Cl)cc3)cc2[nH]1 [Compound 130, 6-chloro-5-(4-chlorophenyl)-2-trifluoromethylbenzimidazole]
- minimal effective concentration (adult F. hepatica [1]; 72 h): 2.5 µg/mL
- Fluke activity score ([2]; 20 μg/ml, 0 h): 3
- Fluke activity score ([2]; 20 μg/ml, 24 h): 0.25
- Fluke activity score ([2]; 20 μg/ml, 48 h): 0
- Fluke activity score ([2]; 20 μg/ml, 72 h): 0

Structure (SMILES): FC(F)(F)C(F)(F)C(F)(F)c1nc2cc(Cl)c(-c3ccc(Cl)cc3)cc2[nH]1 [Compound 274, 5-chloro-6-(4-chlorophenyl)-2-(heptafluoropropyl)-1H-1,3-benzodiazole]
- minimal effective concentration (adult F. hepatica [1]; 72 h): 5 µg/mL
- No. of rats cured/No. of rats investigated (adult F. hepatica [3]): 1/3
- Number of living worms Ø = average (adult F. hepatica [3]): 2.3

Structure (SMILES): C[S+]([O-])c1nc2cc(Oc3cccc(Cl)c3Cl)c(Cl)cc2[nH]1 (stereo not shown) [TBZ-SOX, triclabendazole/sulfoxide, reference compound]
- Fluke activity score ([2]; 50 μg/ml, 0 h): 3
- Fluke activity score ([2]; 50 μg/ml, 24 h): 3
- Fluke activity score ([2]; 50 μg/ml, 48 h): 2.5
- Fluke activity score ([2]; 50 μg/ml, 72 h): 2

Structure (SMILES): FC(F)(F)Sc1nc2cc(Cl)c(-c3cccc(Cl)c3)cc2[nH]1 [Compound 103, 6-chloro-5-(3-chlorophenyl)-2-trifluoromethylthiobenzimidazole]
- minimal effective concentration (adult F. hepatica [1]; 72 h): 5 µg/mL

Structure (SMILES): FC(F)(F)Sc1nc2cc(Cl)c(-c3ccc(Cl)cc3)cc2[nH]1 [Compound 102, 6-chloro-5-(4-chlorophenyl)-2-trifluoromethylthiobenzimidazole]
- minimal effective concentration (adult F. hepatica [1]; 72 h): 5 µg/mL

Structure (SMILES): Fc1ccc(-c2cc3[nH]c(C(F)(F)F)nc3cc2Cl)cc1 [Compound 280, 5-chloro-6-(4-fluorophenyl)-2-(trifluoromethyl)-1H-1,3-benzodiazole]
- minimal effective concentration (adult F. hepatica [1]; [4]): 20 µg/mL

Structure (SMILES): FC(F)(F)c1nc2cc(Cl)c(-c3cc(Cl)cc(Cl)c3)cc2[nH]1 [Compound 247, 6-chloro-5-(3,5-dichlorophenyl)-2-trifluoromethylbenzimidazole]
- minimal effective concentration (adult F. hepatica [1]; 72 h): 5 µg/mL

Structure (SMILES): Fc1ccc(Oc2cc3[nH]c(C(F)(F)C(F)(F)F)nc3cc2Cl)cc1 [Compound 283, 5-chloro-6-(4-fluorophenoxy)-2-(pentafluoroethyl)-1H-1,3-benzodiazole]
- minimal effective concentration (adult F. hepatica [1]; [4]): < 2.5 µg/mL

Structure (SMILES): Fc1ccc(-c2cc3[nH]c(C(F)(F)C(F)(F)C(F)(F)F)nc3cc2Cl)cc1 [Compound 282, 5-chloro-6-(4-fluorophenyl)-2-(heptafluoropropyl)-1H-1,3-benzodiazole]
- minimal effective concentration (adult F. hepatica [1]; 72 h): < 2.5 µg/mL
- No. of rats cured/No. of rats investigated (adult F. hepatica [3]): 2/3
- Number of living worms Ø = average (adult F. hepatica [3]): 2

Structure (SMILES): FC(F)(F)c1ccc(Oc2cc3[nH]c(C(F)(F)C(F)(F)F)nc3cc2Cl)c(Cl)c1 [Compound 296, 5-chloro-6-[2-chloro-4-(trifluoromethyl)phenoxy]-2-(pentafluoroethyl)-1H-1,3-benzodiazole]
- minimal effective concentration (adult F. hepatica [1]; [4]): < 2.5 µg/mL

Structure (SMILES): CSc1nc2cc(Cl)c(Oc3cccc(C)c3C)cc2[nH]1 [Compound 019, 6-chloro-5-(2,3-dimethylphenoxy)-2-methylthiobenzimidazole]
- minimal effective concentration (adult F. hepatica [1]; [5]): 20 µg/mL

Structure (SMILES): CCCCCCc1cc2[nH]c(SC)nc2cc1Cl [Compound 024, 6-chloro-5-hexyl-2-methylthiobenzimidazole]
- minimal effective concentration (adult F. hepatica [1]; [5]): 50 µg/mL

Structure (SMILES): FC(F)(F)c1ccc(-c2cc3[nH]c(C(F)(F)F)nc3cc2Cl)c(C(F)(F)F)c1 [Compound 301, 6-[2,4-bis(trifluoromethyl)phenyl]-5-chloro-2-(trifluoromethyl)-1H-1,3-benzodiazole]
- minimal effective concentration (adult F. hepatica [1]; [4]): < 10 µg/mL

Structure (SMILES): FC(F)(F)c1ccc(-c2cc3[nH]c(C(F)(F)F)nc3cc2Cl)c(Cl)c1 [Compound 307, 5-chloro-6-[2-chloro-4-(trifluoromethyl)phenyl]-2-(trifluoromethyl)-1H-1,3-benzodiazole]
- minimal effective concentration (adult F. hepatica [1]; [4]): < 2.5 µg/mL

Structure (SMILES): FC(F)(F)c1ccc(Oc2cc3[nH]c(C(F)(F)C(F)(F)F)nc3cc2Cl)cc1 [Compound 287, 5-chloro-2-(pentafluoroethyl)-6-[4-(trifluoromethyl)phenoxy]-1H-1,3-benzodiazole]
- minimal effective concentration (adult F. hepatica [1]; [4]): 50 µg/mL

Structure (SMILES): FC(F)(F)c1nc2cc(Cl)c(-c3cc(Cl)cc(Cl)c3Cl)cc2[nH]1 [Compound 261, 6-chloro-5-(2,3,5-trichlorophenyl)-2-trifluoromethylbenzimidazole]
- minimal effective concentration (adult F. hepatica [1]; 72 h): 5 µg/mL

Structure (SMILES): FC(F)(F)c1ccc(-c2cc3[nH]c(C(F)(F)C(F)(F)F)nc3cc2Cl)cc1 [Compound 289, 5-chloro-2-(pentafluoroethyl)-6-[4-(trifluoromethyl)phenyl]-1H-1,3-benzodiazole]
- minimal effective concentration (adult F. hepatica [1]; [4]): < 2.5 µg/mL

Structure (SMILES): FC(F)(F)c1ccc(-c2cc3[nH]c(C(F)(F)C(F)(F)C(F)(F)F)nc3cc2Cl)cc1 [Compound 290, 5-chloro-2-(heptafluoropropyl)-6-[4-(trifluoromethyl)phenyl]-1H-1,3-benzodiazole]
- minimal effective concentration (adult F. hepatica [1]; [4]): 50 µg/mL
- No. of rats cured/No. of rats investigated (adult F. hepatica [3]): 1/3
- Number of living worms Ø = average (adult F. hepatica [3]): 3.3
- Worm burden reduction % (adult F. hepatica [3]): 47.6%

Structure (SMILES): FC(F)(F)C(F)(F)C(F)(F)c1nc2cc(Cl)c(Oc3cccc(Cl)c3Cl)cc2[nH]1 [Compound 140, 6-chloro-5-(2,3-dichlorophenoxy)-2-heptafluoropropylbenzimidazole]
- minimal effective concentration (adult F. hepatica [1]; 72 h): 5 µg/mL
- Fluke activity score ([2]; 20 μg/ml, 0 h): 3
- Fluke activity score ([2]; 20 μg/ml, 24 h): 0.5
- Fluke activity score ([2]; 20 μg/ml, 48 h): 0
- Fluke activity score ([2]; 20 μg/ml, 72 h): 0

Structure (SMILES): FC(F)(F)c1ccc(Oc2cc3[nH]c(C(F)(F)C(F)(F)C(F)(F)F)nc3cc2Cl)cc1 [Compound 288, 5-chloro-2-(heptafluoropropyl)-6-[4-(trifluoromethyl)phenoxy]-1H-1,3-benzodiazole]
- minimal effective concentration (adult F. hepatica [1]; [4]): 20 µg/mL

Structure (SMILES): FC(F)(F)c1ccc(Oc2cc3[nH]c(C(F)(F)F)nc3cc2Cl)cc1 [Compound 286, 5-chloro-2-(trifluoromethyl)-6-[4-(trifluoromethyl)phenoxy]-1H-1,3-benzodiazole]
- minimal effective concentration (adult F. hepatica [1]; [4]): 20 µg/mL

Structure (SMILES): FC(F)(F)c1ccc(-c2cc3[nH]c(C(F)(F)C(F)(F)C(F)(F)F)nc3cc2Cl)c(C(F)(F)F)c1 [Compound 303, 6-[2,4-bis(trifluoromethyl)phenyl]-5-chloro-2-(heptafluoropropyl)-1H-1,3-benzodiazole]
- minimal effective concentration (adult F. hepatica [1]; [4]): 20 µg/mL
- No. of rats cured/No. of rats investigated (adult F. hepatica [3]): 1/3
- Number of living worms Ø = average (adult F. hepatica [3]): 1.3
- Worm burden reduction % (adult F. hepatica [3]): 79.4%

Structure (SMILES): Fc1ccc(Oc2cc3[nH]c(C(F)(F)F)nc3cc2Cl)c(F)c1 [Compound 277, 5-chloro-6-(2,4-difluorophenoxy)-2-(trifluoromethyl)-1H-1,3-benzodiazole]
- minimal effective concentration (adult F. hepatica [1]; [4]): 10 µg/mL

Structure (SMILES): FC(F)(F)c1ccc(-c2cc3[nH]c(C(F)(F)C(F)(F)F)nc3cc2Cl)c(C(F)(F)F)c1 [Compound 302, 6-[2,4-bis(trifluoromethyl)phenyl]-5-chloro-2-(pentafluoroethyl)-1H-1,3-benzodiazole]
- minimal effective concentration (adult F. hepatica [1]; [4]): < 2.5 µg/mL

Structure (SMILES): Fc1ccc(Oc2cc3[nH]c(C(F)(F)C(F)(F)C(F)(F)F)nc3cc2Cl)cc1 [Compound 284, 5-chloro-6-(4-fluorophenoxy)-2-(heptafluoropropyl)-1H-1,3-benzodiazole]
- minimal effective concentration (adult F. hepatica [1]; 72 h): 5 µg/mL
